Measured values: PMC12363935, “Unc-51 Like Kinase 3 (ULK3) is essential for autophagy and cell survival in multiple myeloma” (Research Square, 2025)
Where “and” joins values, the source holds several entries; their conditions need not be identical. Identical values can stand only once.

Columns and labels:
[1] = system: primary CD138+ MM cells; experiment: EMMA ex vivo platform, live cell imaging, 96 hours, collagen matrix with bone marrow stroma and patient plasma; type: cell-based; parameters: scale not given here
Description: For clinical robustness, we tested the activity of MA9 in MM patient samples using our ex vivo mathematical myeloma advisor (EMMA) platform (Supplementary Table 1). […]
For these assays, we used a novel EMMA platform developed at Moffitt. Further details are included in the supplemental Materials. […]
400 Ex vivo drug sensitivity characterization
401 An ex vivo assay was used to quantify the chemosensitivity of primary MM cells. Fresh BM
402 aspirate cells were enriched for CD138+ expression using Miltenyi (Bergisch Gladbach, Germany)
MM cells (CD138+) were seeded in Corning
404 Cell BIND 384 well plates (Corning, NY) with collagen I and previously established human-
407 inactivated), penicillin/streptomycin, and patient-derived plasma (10%, freshly obtained from
409 added using a robotic plate handler so that every drug/combination was tested at 5 (fixed
410 concentration ratio, for combinations) concentrations (1:3 serial dilution) in two replicates.
411 Negative controls (supplemented growth media with and without the vehicle control dimethyl
412 sulfoxide [DMSO]) were included, as well as positive controls for each drug (cell line MM1.S at
413 highest drug concentration). Plates were placed in a motorized stage microscope (EVOS Auto FL,
414 Life Technologies, Carlsbad, CA) equipped with an incubator and maintained at 5% CO2 and 37
415 °C. […]
Digital image analysis computes the percent
418 viability of MM cells for each time point and experimental condition (drug and concentration)

[2] = system: human mesenchymal stem cells (hMSCs); experiment: MTS assay on hMSCs; type: cell-based; settings: nM concentration
Experimental: complex. Supplementary Figure 5. […]
here as reference for BRD4 inhibitory activity. […] NA=
1 hour incubation with liver microsomes. C.
ULK3 rendered in Pymol (Schrodinger Inc.) at a 2.8 Å resolution. D. Table summarizing hULK3-MA9060 crystallographic data collection and refinement statistics. E. MA9060 is a dual inhibitor, able to decrease both ULK3 and MYC protein levels in MYC-dependent MM1.S MM cells. JQ1 is here included as the control for […]
mesenchymal stem cells (hMSCs) at 24 (G) and 48 (H) hours.

[3] = system: autophagy proteins in U266 MM cells; experiment: Immunoblot densitometry of autophagy proteins; type: cell-based, Human; settings: U266, 6h, MA9-060 1μM, JQ1 10μM, CQ 1μM
Experimental: Figure 3. Anti-myeloma activity of the MA9–060 autophagy inhibitor. A. Chemical structure of the autophagy inhibitor MA9–060. […] Chloroquine (CQ) (1μM) served as a positive control for autophagy inhibition. C. […] Hoechst 33342 dye appears here as the nuclear blue staining (Multiple comparisons ANOVA, p <0.0001).
157 5872S). Protein concentration was quantified by Thermo Scientific™ Pierce™ BCA™ Protein
30 μg protein was loaded to 10%-15% gel and ran at
159 100V for 2 hours. Later protein was transferred to PVDF membrane and blocked with 5% skimmed
160 milk in TBST (10 mM Tris/HCl pH8.0, 0.12M NaCl, 0.1% Tween 20) containing 5% BSA [8] for
163 at 4°C overnight. Membranes were washed 3 times,10 minutes with TBS. Then incubated with
164 appropriate secondary antibodies at 1:1000 ratio in skimmed milk or 2% BSA. The membranes
165 were washed again 3 times for 10 minutes with TBST. ECL reagents were added to the membrane
166 and blot was developed by LICOR Imaging Studio.
167 All immunoblotting assays were performed at least in three replicates and representative
168 images are shown. Commercially available antibodies and their dilutions are listed in
169 Supplementary Table 5. Immunoblotting images were acquired and quantified using LICOR
170 Image Studio Quant software. […]

Structure (SMILES): Cc1cnc(Nc2ccc(C3CCN(C)CC3)c(F)c2)nc1Nc1ccc(Cl)c(NS(=O)(=O)C(C)(C)C)c1 [MA9060]
- AUC ([1]; Pt648, LRMM): 42.835
- AUC ([1]; Pt653, LRMM): 41.560
- AUC ([1]; Pt655, LRMM, listed as MA9): 26.03
- AUC ([1]; Pt663, LRMM, listed as MA9): 47.02
- AUC ([1]; Pt665, LRMM, listed as MA9): 70.14
- AUC ([1]; Pt666, LRMM, listed as MA9): 49.23
- AUC ([1]; Pt669, ERMM, listed as MA9): 29.51
- AUC ([1]; Pt672, NDMM, listed as MA9): 49.16
- AUC ([1]; Pt677, NDMM): 43.301 and 45.593
- AUC ([1]; Pt680, ERMM): 42.605
- AUC ([1]; Pt680, ERMM, listed as MA9): 35.24
- AUC ([1]; Pt685, ERMM, listed as MA9): 100
- AUC ([1]; Pt689, NDMM): 97.182
- AUC ([1]; Pt691, LRMM, listed as MA9): 68.66
- AUC ([1]; Pt693, SMOL, listed as MA9): 70.97
- AUC ([1]; Pt694, NDMM, listed as MA9): 47.51
- AUC ([1]; Pt695, LRMM, listed as MA9): 70.64
- AUC ([1]; Pt697, NDMM, listed as MA9): 65.92
- AUC ([1]; Pt700, NDMM): 71.574
- AUC ([1]; Pt700, NDMM, listed as MA9): 71.39
- AUC ([1]; Pt707, LRMM, listed as MA9): 73.56
- AUC ([1]; Pt718, SMOL, listed as MA9): 76.17
- AUC ([1]; Pt737, MGUS): 42.854
- AUC ([1]; Pt738, NDMM, listed as MA9): 65.97
- AUC ([1]; Pt740, SMOL): 62.223
- AUC ([1]; Pt745, NDMM): 55.970
- AUC ([1]; Pt825, NDMM): 100
- AUC ([1]; Pt852, NDMM): 41.956
- AUC ([1]; Pt853, ERMM): 49.879 and 54.514
- AUC ([1]; Pt856, NDMM, listed as MA9): 72.33
- AUC ([1]; Pt865, LRMM, listed as MA9): 59.28
- AUC ([1]; Pt866, NDMM, listed as MA9): 37.56
- AUC ([1]; Pt875, NDMM, listed as MA9): 21.1
- AUC ([1]; Pt885, NDMM): 28.777
- AUC ([1]; Pt885, NDMM, listed as MA9): 27.78
- AUC ([1]; Pt888, LRMM, listed as MA9): 59.98
- AUC ([1]; Pt893, LRMM): 96.916
- AUC ([1]; Pt899, SMOL): 28.290
- AUC ([1]; Pt906, NDMM, listed as MA9): 43.69
- AUC ([1]; Pt909, LRMM): 46.043
- AUC ([1]; Pt912, PCL): 41.302
- AUC ([1]; Pt917, LRMM): 73.927
- AUC ([1]; Pt920, LRMM): 44.399
- AUC ([1]; Pt923, LRMM, listed as MA9): 28.34
- AUC ([1]; Pt932, LRMM): 45.003
- AUC ([1]; Pt933, LRMM, listed as MA9): 57.89
- AUC ([1]; Pt935, NDMM, listed as MA9): 25.47
- AUC ([1]; Pt936, LRMM): 83.700
- AUC ([1]; Pt937, NDMM): 48.139 and 40.693
- AUC ([1]; Pt940, LRMM): 72.923
- AUC ([1]; Pt945, LRMM): 39.091
- AUC ([1]; Pt948, LRMM, listed as MA9): 24.69
- AUC ([1]; Pt951, ERMM, listed as MA9): 62.38
- AUC ([1]; Pt956, NDMM): 67.208 and 74.021
- AUC ([1]; Pt957, LRMM): 80.043
- AUC ([1]; Pt961, NDMM): 66.118 and 49.072
- toxicity to normal primary human MSCs [2]: not toxic
- LC3II densitometry ([3]; CTRL 0.34): 0.10
- LC3I densitometry ([3]; CTRL 3.01): 1.78
- ULK1 densitometry ([3]; CTRL 7.21): 2.44
- ULK3 densitometry ([3]; CTRL 15.17): 3.33
